Measured values as given in patent US4699898A, “Tripeptides affecting immune response” (Imreg, Inc., priority 1985, dated 1987).
Residues, ends and D or L forms follow the SMILES beside them.

Tested on: dermal reaction to tetanus toxoid antigen
Details: in vivo

N[C@@H](Cc1ccc(O)cc1)C(=O)NCC(=O)NCC(=O)O [TGG, Tyr-Gly-Gly] (H-Tyr-Gly-Gly-OH)
Dermal reaction without antigen: No reaction was observed
